How the values were obtained:
[1] = system: BG1 ovarian cancer cell line; assay: Binding activity (connectivity) of peptide-conjugated magnetic beads to cancer cells; design: species or system Human; conditions: 10 ng/mL peptide
Procedure: Human ovarian cancer cell line, BG1, was used. BG1 was cultured in DMEM/F12 medium containing 10% Fetal Bovine Serum (FBS). Other conditions of the culture are 37° C. and 5% CO2 in moisture atmosphere.
(§1) 10 ng/mL of the peptide SEQ ID NO:1 of the present invention was used to examine the binding activity to different cancer cells, including pancreatic cancer cell line (BxPC3), colon cancer cell line (HCT8), cervical cancer cell line (HeLa), and liver cancer cell line (HepG2).

[2] = system: cervical cancer cell line (HeLa); assay: as above; conditions: 10 ng/mL peptide
Procedure: (§2) Other cell lines were used in the embodiments of the present invention including pancreatic cancer cell line (BxPC3), colon cancer cell line (HCT8), cervical cancer cell line (HeLa), and liver cancer cell line (HepG2).
as §1

[3] = system: colon cancer cell line (HCT8); assay: as above; conditions: 10 ng/mL peptide
Procedure: as §2, §1

[4] = system: liver cancer cell line (HepG2); assay: as above; conditions: 10 ng/mL peptide
Procedure: as §2, §1

[5] = system: pancreatic cancer cell line (BxPC3); assay: as above; conditions: 10 ng/mL peptide
Procedure: as §2, §1

ovarian cancer cells = assay: Capturing test with peptide-conjugated magnetic beads, microscopic observation; assay type: binding; conditions: 10^5 ovarian cancer cells
Procedure: (A) magnetic beads without peptide conjugation; (B) magnetic beads conjugated to 10 μg/mL of peptide; (C) magnetic beads conjugated to 10 ng/mL of peptide; (D) magnetic beads conjugated to 10 ρg/mL of peptide.
Different concentrations of the peptide of the present invention were conjugated to magnetic beads, wherein said concentrations are 10 μg/mL, 10 ng/mL, and 10 ρg/mL. The capturing test was performed using 10^5 ovarian cancer cells.

other cancer cells = assay: Binding activity to other cancer cells (average over non-ovarian lines)
Procedure: as §1

For “N′-MPHPTKNFDLYV-C′ [peptide of the present invention]”, the “Connectivity (%)” value [1] was “about 80%”, the “Connectivity (%)” value ([1]; listed as peptide) was “more than 80%” and the “Connectivity (%)” value ([1]; listed as peptide of present invention) was 80.38 ± 2.69%. The “Connectivity (%)” value [2] was 26.02 ± 2.01%, the “Connectivity (%)” value [3] was 22.37 ± 1.89% and the “Connectivity (%)” value [4] was 15.77 ± 5.25%. The “Connectivity (%)” value [5] was 12.89 ± 0.21%, the “connection to ovarian cancer cells under microscopic observation” value (ovarian cancer cells; peptide 10 μg/mL, 10 ng/mL and 10 ρg/mL conjugated to magnetic beads) was “able to connect to ovarian cancer cells” and the “peptide concentration required to efficiently capture ovarian cancer cells” value (ovarian cancer cells; peptide conjugated to magnetic beads) was 10 ρg/mL. For the same substance, the “average connectivity to other cancer cells” value (other cancer cells; 10 ng/mL peptide, average of non-ovarian cancer cell lines) was “about 20%” and the “binding activity to other cancers” value (other cancer cells; pancreatic, colorectal, cervical or liver cancer) was “negligible binding activity”.

Reference: patent publication US9170261B2, “Peptide specific for ovarian cancer and applications” (National Tsing Hua University, priority 2013, dated 2015)
